Reference: article PMC12775434, “Ultra-large virtual screening unveils potent agonists of the neuromodulatory orphan receptor GPR139” (Nature Communications, 2025)
“And” between values parts separate entries of the source, which are not always exact repeats. Equal entries are not always repeated.

Columns and labels:
[1] = target: T1, GPR139 (GoA activation) (Homo sapiens, UniProt Q6DWJ6); assay: BRET G protein activation (dissociation) assay, GoA, HEK293A; type: cell-based; conditions: for G protein activation, GoA: individual replicates
T1 construct: expressed in transfected cells; host or cells: HEK293A (transient, Lipofectamine 2000)
T1 sequence (Q6DWJ6 1-353): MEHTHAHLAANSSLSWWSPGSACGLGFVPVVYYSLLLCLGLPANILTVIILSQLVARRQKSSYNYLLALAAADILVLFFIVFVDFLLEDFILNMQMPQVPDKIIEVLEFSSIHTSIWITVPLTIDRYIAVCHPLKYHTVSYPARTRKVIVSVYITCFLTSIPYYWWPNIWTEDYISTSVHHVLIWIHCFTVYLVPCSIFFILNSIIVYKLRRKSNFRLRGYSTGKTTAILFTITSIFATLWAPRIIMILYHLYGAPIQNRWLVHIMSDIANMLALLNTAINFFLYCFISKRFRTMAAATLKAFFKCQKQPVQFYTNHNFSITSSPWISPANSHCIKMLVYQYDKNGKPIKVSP
Description: (§1) Primary screening and pharmacological characterization of compounds were performed using a CHO-K1 cell line that stably expresses human GPR139 (GPR139-CHOk1). The GPR139-CHOk1 cell line was kindly provided by H. Lundbeck A/S, Denmark[24]. GPR139-CHOk1 cells were grown in Ham’s F-12 Kaighn’s Modification Medium (ThermoFisher #21127030) supplemented with 10% dialyzed fetal bovine serum (US origin, ThermoFisher #26400044), 100 units/mL Penicillin-Streptomycin (ThermoFisher #15140122), and 1 mg/mL Geneticin (ThermoFisher #11811031). […] M1R-CHOk1 cells were purchased from The Missouri S&T cDNA Resource Center (#CEM100TN00). M1R-CHOk1 cells were grown in Ham’s F12 Medium (ThermoFisher #21765029) supplemented with 10% fetal bovine serum (Brazilian origin, ThermoFisher #10270106), 100 units/mL Penicillin-Streptomycin, and 0.25 mg/mL Geneticin. HEK293A cells transiently transfected with GPR139 were used for additional pharmacological assessment of signaling pathways activated by GPR139. HEK239A cells were generously provided by Dr. Asuka Inoue, Tohoku University, Japan. HEK293A cells were grown in Dulbecco’s Modified Eagle Medium (ThermoFisher #31966047) supplemented with 10% dialyzed fetal bovine serum and 100 units/mL Penicillin-Streptomycin. Cell lines were maintained at 37 °C in humidified incubator equilibrated with 5% CO2.
(§2) The G protein dissociation assay developed by the lab of Kirill A. Martemyanov was used to measure the coupling of multiple G proteins by GPR139[57]. The assay was performed as described previously with minor modifications. HEK293A cells were reverse transfected 20–24 h prior to assay. 50,000 cells were plated in each well of white opaque tissue culture treated 96-well plates (PerkinElmer #6005680) previously coated with poly-D-lysine. Transfection solutions were prepared as described, and 10 µL transfection solution was mixed with 100 µL cells in each well. The cells in each well were transfected with 18.9 ng GPR139, 6.3 ng Venus 1-155 Gγ2, 6.3 ng Venus 159-239 Gβ1, 6.3 ng masGRK3ct-NanoLuc and 12.6 ng Gαi2, 12.6 ng Gαi3, 12.6 ng GαoA, 12.6 ng Gαq or 25.2 ng Gα12 using 375 nL Lipofectamine 2000 Transfection Reagent. Transfections with Gαq and Gα12 contained 6.3 ng DNA of the active subunit S1 of pertussis toxin (PTX-S1). Each transfection was normalized to 150 ng total DNA with pcDNA3.1. The BRET biosensors were a kind gift from the Martemyanov lab. On the day of the experiment the cells were washed with HEPES buffer. Test compounds were diluted in HEPES buffer from DMSO stocks (final DMSO concentration of maximally 0.3%). NanoLuc Luciferase substrate NanoGlo—furimazine (Promega #N1120) was diluted 1000-fold (final) in HEPES buffer. NanoGlo and test compounds were added, and measurements were performed after 10 s for Gi3, 15 s for Gi2 and GoA, 20 s for Gq, and 90 s for G12—the timepoint where maximal signal occurred with each G protein, ensuring proper determination of the potency for the G protein coupling. Simultaneous dual emission was measured at 535 nm and 475 nm on LUMIstar Omega Microplate Reader (BMG Labtech) at room temperature. The BRET ratio of 535 nm/475 nm (Venus/NanoLuc), reflecting the dissociation of the G protein heterotrimer, was used to determine the G protein activation. The basal BRET ratio obtained with buffer condition was subtracted from the absolute BRET ratio at a given test compound concentration, and the responses were normalized to the one obtained with 10 µM JNJ-63533054 for the activation of Gi2.
(§3) Pharmacological data and statistical analyses were performed in GraphPad Prism v9–10 (Graphpad Software Inc., San Diego, CA), which are also specifically described in the figure and table legends. […]

[2] = target: T2, GPR139 (Gi3 activation) (Homo sapiens, UniProt Q6DWJ6); assay: BRET G protein activation (dissociation) assay, Gi3, HEK293A; type: cell-based; conditions: for G protein activation, Gi3: individual replicates
T2 construct: expressed in transfected cells; host or cells: HEK293A (transient, Lipofectamine 2000)
T2 sequence (Q6DWJ6 1-353): T1 sequence (Q6DWJ6 1-353)
Description: as §1, §2, §3

[3] = HEK293-A, normalized to JNJ-63533054 (JNJ(S))

Emax [1, 3]: 75 ± 3% | EC50 ([1]; Supplementary Table 6): 794 nM | Emax [2, 3]: 37 ± 1% | EC50 ([2]; Supplementary Table 6, read-out: pEC50 Gi3 (converted)): 794 nM
Compound: Cc1cscc1-c1nc(CC(=O)N[C@H](C)c2ccccc2)no1 [1.1(R)]
G protein activation, GoA ([1]; log [compound] M -4.5): 74 % of JNJ-63533054 at Gi2 and 67 % of JNJ-63533054 at Gi2 and 78 % of JNJ-63533054 at Gi2 | G protein activation, GoA ([1]; log [compound] M -5.0): 69 % of JNJ-63533054 at Gi2 and 63 % of JNJ-63533054 at Gi2 and 75 % of JNJ-63533054 at Gi2 | G protein activation, GoA ([1]; log [compound] M -5.5): 62 % of JNJ-63533054 at Gi2 and 48 % of JNJ-63533054 at Gi2 and 61 % of JNJ-63533054 at Gi2 | G protein activation, GoA ([1]; log [compound] M -6.0): 47 % of JNJ-63533054 at Gi2 and 34 % of JNJ-63533054 at Gi2 and 45 % of JNJ-63533054 at Gi2 | G protein activation, GoA ([1]; log [compound] M -6.5): 19 % of JNJ-63533054 at Gi2 and 16 % of JNJ-63533054 at Gi2 and 26 % of JNJ-63533054 at Gi2 | G protein activation, GoA ([1]; log [compound] M -7.0): 7.39 % of JNJ-63533054 at Gi2 and 4 % of JNJ-63533054 at Gi2 and 10 % of JNJ-63533054 at Gi2 | G protein activation, GoA ([1]; log [compound] M -7.5): 0.895 % of JNJ-63533054 at Gi2 and 2 % of JNJ-63533054 at Gi2 and 3.63 % of JNJ-63533054 at Gi2 | G protein activation, GoA ([1]; log [compound] M -8.0): -4.44 % of JNJ-63533054 at Gi2 and -2.19 % of JNJ-63533054 at Gi2 and 2.68 % of JNJ-63533054 at Gi2 | G protein activation, Gi3 ([2]; log [compound] M -4.5): 39 % of JNJ-63533054 at Gi2 and 35 % of JNJ-63533054 at Gi2 and 34 % of JNJ-63533054 at Gi2 | G protein activation, Gi3 ([2]; log [compound] M -5.0): 33 % of JNJ-63533054 at Gi2 and 34 % of JNJ-63533054 at Gi2 (2×) | G protein activation, Gi3 ([2]; log [compound] M -5.5): 30 % of JNJ-63533054 at Gi2 (2×) and 24 % of JNJ-63533054 at Gi2 | G protein activation, Gi3 ([2]; log [compound] M -6.0): 21 % of JNJ-63533054 at Gi2 and 22 % of JNJ-63533054 at Gi2 and 20 % of JNJ-63533054 at Gi2 | G protein activation, Gi3 ([2]; log [compound] M -6.5): 11 % of JNJ-63533054 at Gi2 (2×) and 12 % of JNJ-63533054 at Gi2 | G protein activation, Gi3 ([2]; log [compound] M -7.0): 1 % of JNJ-63533054 at Gi2 and 4.71 % of JNJ-63533054 at Gi2 and 3.32 % of JNJ-63533054 at Gi2 | G protein activation, Gi3 ([2]; log [compound] M -7.5): -0.169 % of JNJ-63533054 at Gi2 and 1.37 % of JNJ-63533054 at Gi2 and 5.42 % of JNJ-63533054 at Gi2 | G protein activation, Gi3 ([2]; log [compound] M -8.0): -2.27 % of JNJ-63533054 at Gi2 and 2 % of JNJ-63533054 at Gi2 and 10 % of JNJ-63533054 at Gi2
